Test results reported in patent US12053506B2, “Romo1-derived antimicrobial peptides and variants thereof” (priority 2019, dated 2024).
Values after ≈ are worked out from the molar mass of the structure shown. Like-named read-outs stand apart in the source and are kept apart here. Non-standard residues stand in square brackets, D forms with d. Residues, ends and D or L forms follow the SMILES beside them. No end group written: not given here. Nle = CCCC[C@H](N)C(=O)O

Key:
[1] = system: methicillin-resistant Staphylococcus aureus (ATCC 33591); conditions: Tables 11-15, no unit printed
Experimental: First, each of Pseudomonas aeruginosa (ATCC 27853) and Staphylococcus aureus (ATCC 29213) was cultured in 3% (w/v) TSB (Tryptic Soy Broth) liquid medium at 37° C. and 200 rpm for 4 hours, and then further cultured under the same conditions for 3 hours to a concentration of 5×10^6 CFU/ml. Strain solutions were prepared by diluting each of the further cultured strains with SP (sodium phosphate; 10 mM sodium phosphate, 1% TSB) buffer to a final concentration of 2×10^5 CFU/ml.
(§1) Then, each peptide at varying concentrations (0 μg/ml to 300 μg/ml) was dispensed into each well of a 96-well microplate, and 100 μl (1×10^5 CFU/ml) of each of the prepared strain solutions was added thereto, mixed therewith, and allowed to react with the peptide in an incubator at 37° C. for 1 hour.
In addition, 30 g/L of TS (tryptic soy) and 15 g/L of agar were dissolved in distilled water and sterilized, and then 25 ml of the solution was poured onto a 100 mm round plate and solidified at room temperature for one day or more, thereby preparing a TS agar plate. 10 μl of each reaction solution of the peptide and the strain was plated on the TS agar plate at a constant size, and incubated in an incubator at 37° C. for 18 hours, and then colony formation on the plate was checked.
Specifically, each type of bacteria was cultured in 3% (w/v) TSB (Tryptic Soy Broth) liquid medium at 37° C. and 200 rpm for 4 hours, and then further cultured under the same conditions for 3 hours to a concentration of 5×10^6 CFU/ml. Strain solutions were prepared by diluting each of the […] of 2×10^5 CFU/ml.
as §1, with “Then, the KU-5878” for “Then, each”
In addition, 10 μl of each reaction solution of the peptide and the strain was plated on the TS agar plate at a constant size, and incubated in an incubator at 37° C. for 18 hours, and then colony formation on the plate was checked.

[2] = system: CRPA; test: MBC, evaluation of antibacterial activities of KU-5878 variants; format: cell-based; conditions: Tables 11-15, no unit printed
Experimental: Variants were prepared by deleting one amino acid from the amino acid sequence of KU-5878 (SEQ ID NO: 13), and the antibacterial activities thereof were evaluated.
Variants were prepared by deleting two or more amino acids from the amino acid sequence of KU-5878 (SEQ ID NO: 13), and the antibacterial activities thereof were evaluated.
One amino acid in the amino acid sequence of KU-5878 (SEQ ID NO: 13) was substituted, and the antibacterial activities of the peptides were evaluated.
Substitutions of Q62K, S63K and T66K were sequentially added to the amino acid sequence of KU-5878-T59K, and the antibacterial activities of the peptides were evaluated.
An amino acid repeat sequence was added to the C-terminus of KU-5878, and the antibacterial activities of the peptides were evaluated. According to Table 15 below, when the R (arginine) repeat sequence or K (lysine) sequence was added to the C-terminus of KU-5878, the antibacterial activity of the peptide increased.

[3] = system: Pseudomonas aeruginosa (ATCC 27853); format: cell-based; conditions: for MBC Pseudomonas aeruginosa: Tables 11-15, no unit printed
Excerpt: (§2) Romo1 protein comprises two α-helices. The present inventors synthesized the α-helix 2 region having both hydrophilicity and hydrophobicity, and evaluated the antibacterial activity thereof using minimum bactericidal concentration (MBC) assay. The α-helix 2 region was named KU-5279 (the 52-79 amino acid region of Romo1 protein). Then, in order to identify peptides that are beneficial for human application and have excellent antibacterial activity, the present inventors synthesized several peptides comprising a sequence of contiguous amino acids starting at any amino acid selected from the 52-79 amino acid region of Romo1 protein, and comparatively evaluated the antibacterial activities of the peptides by minimum bactericidal concentration assay (See Table 1 below for information on each peptide). Evaluation of the antibacterial activity of each peptide by minimum bactericidal concentration assay was specifically performed as follows. First, each of Pseudomonas aeruginosa (ATCC 27853) and Staphylococcus aureus (ATCC 29213) was cultured in 3% (w/v) TSB (Tryptic Soy Broth) liquid medium at 37° C. and 200 rpm for 4 hours, and then further cultured under the same conditions for 3 hours to a concentration of 5×10^6 CFU/ml. Strain solutions were prepared by diluting each of the further cultured strains with SP (sodium phosphate; 10 mM sodium phosphate, 1% TSB) buffer to a final concentration of 2×10^5 CFU/ml. Then, each peptide at varying concentrations (0 μg/ml to 300 μg/ml) was dispensed into each well of a 96-well microplate, and 100 μl (1×10^5 CFU/ml) of each of the prepared strain solutions was added thereto, mixed therewith, and allowed to react with the peptide in an incubator at 37° C. for 1 hour. In addition, 30 g/L of TS (tryptic soy) and 15 g/L of agar were dissolved in distilled water and sterilized, and then 25 ml of the solution was poured onto a 100 mm round plate and solidified at room temperature for one day or more, thereby preparing a TS agar plate. 10 μl of each reaction solution of the peptide and the strain was plated on the TS agar plate at a constant size, and incubated in an incubator at 37° C. for 18 hours, and then colony formation on the plate was checked. The minimum bactericidal concentration was defined as the minimum concentration of the peptide at which no colony was formed, and the experimental results are shown in Table 1 below.

[4] = system: Staphylococcus aureus (ATCC 29213); format: cell-based; conditions: for MBC Staphylococcus aureus: Tables 11-15, no unit printed
Excerpt: as §2

Molecule | MBC MRSA [1] [µg/mL] | MBC CRPA [2] [µg/mL] | MBC value (μg/ml) against Pseudomonas aeruginosa ([3]; ATCC 27853, 1 h) [µg/mL] | MBC Pseudomonas aeruginosa [3] [µg/mL] | MBC value (μg/ml) against Staphylococcus aureus ([4]; ATCC 29213, 1 h) [µg/mL] | MBC Staphylococcus aureus [4] [µg/mL] | also measured
CCCC[C@H](NC(=O)CNC(=O)[C@@H](NC(=O)[C@H](C)NC(=O)[C@H](CCCC)NC(=O)[C@H](Cc1ccccc1)NC(=O)[C@@H](NC(=O)CNC(=O)[C@H](Cc1ccccc1)NC(=O)[C@@H](NC(=O)CNC(=O)CNC(=O)[C@H](CO)NC(=O)[C@H](CCC(N)=O)NC(=O)[C@H](CCCC)NC(=O)[C@H](CCCC)NC(=O)[C@@H](NC(=O)[C@@H](N)CCCCN)[C@@H](C)O)[C@@H](C)O)[C@@H](C)O)[C@@H](C)CC)C(=O)NCC(=O)N[C@H](C(=O)N[C@@H](CCCNC(=N)N)C(=O)O)[C@@H](C)CC [KU-5878-4Nle] (H-KT[Nle][Nle]QSGGTFGTF[Nle]AIG[Nle]GIR-OH; N-terminus and C-terminus assumed) | 100 (≈ 46.5 µM) | 100 (≈ 46.5 µM) | 110 (≈ 51.1 µM) | 110 (≈ 51.1 µM) | 90 (≈ 41.8 µM) | 90 (≈ 41.8 µM) | –
CC[C@@H](C)[C@@H](NC(=O)CNC(=O)[C@@H](CCSC)NC(=O)CNC(=O)[C@H](NC(=O)[C@@H](C)NC(=O)[C@@H](CCSC)NC(=O)[C@@H](Cc1ccccc1)NC(=O)[C@H](NC(=O)CNC(=O)[C@@H](Cc1ccccc1)NC(=O)[C@H](NC(=O)CNC(=O)CNC(=O)[C@@H](CO)NC(=O)[C@@H](CCC(N)=O)NC(=O)[C@@H](CCSC)NC(=O)[C@@H](CCSC)NC(=O)[C@H](NC(=O)[C@H](N)CCCCN)[C@H](C)O)[C@H](C)O)[C@H](C)O)[C@H](C)CC)C(=O)N[C@H](CCCNC(=N)N)C(=O)O [KU-5878-D(all)] (H-[dK][dT][dM][dM][dQ][dS]GG[dT][dF]G[dT][dF][dM][dA][dI]G[dM]G[dI][dR]-OH; N-terminus and C-terminus assumed) | – | – | – | – | – | – | MBC (μg/ml) value against Pseudomonas aeruginosa ([3]; ATCC 27853, 1 h): 300 µg/mL (≈ 135 µM); MBC (μg/ml) value against Staphylococcus aureus ([4]; ATCC 29213, 1 h): 300 µg/mL (≈ 135 µM)
-TMMQSGGTFGTFMAIGMGIR [Peptide 5878-d58K] | > 300 | 300 | – | 300 | – | 300 | –
CLRIGMRGRELMGGIGKTM [pCM19, reference compound] | – | – | 300 | – | 250 | – | –
GGIGKTMMQSGGTFGTFMAIGMGIRC [KU-5479] | – | – | – | – | 200 | – | –
GKTMMQSGGTFGTFMAIGMGIR [KU-5778] | – | – | 300 | – | 280 | – | –
GKTMMQSGGTFGTFMAIGMGIRC [KU-5779] | – | – | 280 | – | 250 | – | –
K-MMQSGGTFGTFMAIGMGIR [Peptide 5878-d59T] | 150 | 150 | – | 150 | – | 150 | –
KAMMQSGGTFGTFMAIGMGIR [KU-5878-T59A] | 140 | 130 | – | 150 | – | 120 | –
KHMMQSGGTFGTFMAIGMGIR [KU-5878-T59H] | > 300 | > 300 | – | > 300 | – | > 300 | –
KSMMQSGGTFGTFMAIGMGIR [KU-5878-T59S] | > 300 | > 300 | – | > 300 | – | > 300 | –
KT-MQS-GTFGTF--IG-GIR [5878-d60M, d64G, d71M, d72A, d75M] | 200 | 200 | – | 200 | – | 200 | –
KT-MQS-GTFGTFM-IG-GIR [5878-d60M, d64G, d72A, d75M] | 120 | 120 | – | 120 | – | 100 | –
KT-MQS-GTFGTFMAIGMGIR [5878-d60M, d64G] | 110 | 100 | – | 100 | – | 100 | –
KT-MQSGGTFGTFM-IG-GIR [5878-d60M, d72A, d75M] | 300 | 300 | – | 300 | – | 280 | –
KT-MQSGGTFGTFMAIGMGIR [Peptide 5878-d60M] | 100 | 90 | – | 90 | – | 90 | –
KTAMQSGGTFGTFMAIGMGIR [KU-5878-M60A] | > 300 | > 300 | >300 | > 300 | >300 | > 300 | –
KTMM-SGGTFGTFMAIGMGIR [Peptide 5878-d62Q] | 100 | 100 | – | 100 | – | 90 | –
KTMMASGGTFGTFMAIGMGIR [KU-5878-Q62A] | > 300 | > 300 | – | > 300 | – | > 300 | –
KTMMHSGGTFGTFMAIGMGIR [KU-5878-Q62H] | > 300 | > 300 | – | > 300 | – | > 300 | –
KTMMQ-GGTFGTFMAIGMGIR [Peptide 5878-d63S] | 200 | 200 | – | 200 | – | 200 | –
KTMMQSGGTFGTFMAIGM [KU-5875] | – | – | >300 | – | >300 | – | –
KTMMQSGGTFGTFMAIGMG [KU-5876] | – | – | >300 | – | >300 | – | –
KTMMQSGGTFGTFMAIGMGI [KU-5877] | – | – | >300 | – | >300 | – | –
KTMMQSGGTFGTFMAIGMGIR-NH2 [KU-5878-NH2] | – | – | 60 | – | 70 | – | –
KTMMQSGGTFGTFMAIGMGIRC [KU-5879] | – | – | 150 | – | – | – | –
MPVAVGPYGQSQPSCFDRVKMGFVMGCAVGMAAGALFGTFSCLRIGMRGRELMGGIGKTMMQSGGTFGTFMAIGMGIRC (protein, Homo sapiens Romo1) MPVAVGPYGQSQPSCFDRVKMGFVMGCAVGMAAGALFGTFSCLRIGMRGRELMGGIGKTMMQSGGTFGTFMAIGMGIRC | – | – | – | – | – | – | MBC value (μg/ml) against Pseudomonas aeruginosa ([3]; ATCC 27853, 1 hour reaction at 37° C.): Insoluble; MBC value (μg/ml) against Staphylococcus aureus ([4]; ATCC 29213, 1 hour reaction at 37° C.): Insoluble
